# Results: ChEMBL document CHEMBL1201862, “PubChem BioAssay data set” (2004)
#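 96-well plates; 48 h exposure; 5 concentrations. Endpoints by linear interpolation between flanking doses. Not reached: highest tested concentration assigned. At the GI50, growth is halved.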 Activity calls are given as the source filed them. Cut-off read from the data, not from the text of the source: active = GI50 up to about 1.1 µM and inactive = higher.
# What was measured:
# Experiment in all cases: NCI-60 cell line screen, 48 h
# [1] = system: KM12
# [2] = system: HCT-116
# [3] = system: NCI-H460
# [4] = system: A549
# [5] = system: NCI-H226
# [6] = system: OVCAR-4
# [7] = system: PC-3
# [8] = system: HL-60
# [9] = system: MOLT-4
# [10] = system: ACHN
# [11] = system: Malme-3M
# [12] = system: UACC-62
# [13] = system: A498
# [14] = system: DU-145
# [15] = system: LOX IMVI
# [16] = system: 786-0
# [17] = system: CCRF-CEM
# [18] = system: SK-MEL-2
# [19] = system: HT-29
# [20] = system: SF-295
Compound,GI50 [1],GI50 [2],GI50 [3],GI50 [4],GI50 [5],GI50 [6],GI50 [7],GI50 [8],GI50 [9],GI50 [10],GI50 [11],GI50 [12],GI50 [13],GI50 [14],GI50 [15],GI50 [16],GI50 [17],GI50 [18],GI50 [19],GI50 [20]
O=C(CSc1ncccn1)N/N=C/c1ccccc1OCc1ccccc1,28.4 µM (inactive),23 µM (inactive),30.1 µM (inactive),71.8 µM (inactive),20.6 µM (inactive),22.8 µM (inactive),28.8 µM (inactive),21.1 µM (inactive),20.2 µM (inactive),35.2 µM (inactive),32.4 µM (inactive),20.9 µM (inactive),22.1 µM (inactive),29.8 µM (inactive),17.4 µM (inactive),34.6 µM (inactive),15.3 µM (inactive),21.3 µM (inactive),34.1 µM (inactive),21.6 µM (inactive)
O=[N+]([O-])c1ccc(-[n+]2ccc3ccccc3c2)c([N+](=O)[O-])c1,12.3 µM (inactive),2.35 µM (inactive),10.9 µM (inactive),16.4 µM (inactive),16.2 µM (inactive),1.56 µM (inactive),3.93 µM (inactive),1.54 µM (inactive),2.83 µM (inactive),2.02 µM (inactive),3.94 µM (inactive),2.28 µM (inactive),14.8 µM (inactive),14.6 µM (inactive),1.95 µM (inactive),1.73 µM (inactive),1.54 µM (inactive),11.1 µM (inactive),2.33 µM (inactive),14.8 µM (inactive)
CC(C)Cn1cnc2c(NCC(C)O)nc3ccccc3c21 (stereo not given),> 100 µM (inactive),42.5 µM (inactive),> 100 µM (inactive),> 100 µM (inactive),> 100 µM (inactive),> 100 µM (inactive),87.7 µM (inactive),37.5 µM (inactive),63.2 µM (inactive),41.1 µM (inactive),74.3 µM (inactive),52.2 µM (inactive),60.8 µM (inactive),89.5 µM (inactive),42.6 µM (inactive),> 100 µM (inactive),> 100 µM (inactive),> 100 µM (inactive),36.6 µM (inactive),> 100 µM (inactive)
c1ccc(-c2nn(-c3ccccc3)[n+](-c3ccccc3)n2)cc1 [TETRAZOLIUM RED],11.3 µM (inactive),6.5 µM (inactive),21.1 µM (inactive),23.9 µM (inactive),24.5 µM (inactive),2.01 µM (inactive),3.83 µM (inactive),0.184 µM (active),19.1 µM (inactive),> 78 µM (inactive),0.394 µM (active),13.8 µM (inactive),> 74.6 µM (inactive),> 48.5 µM (inactive),11.9 µM (inactive),14.3 µM (inactive),0.718 µM (active),36.8 µM (inactive),18.6 µM (inactive),> 56.1 µM (inactive)
O=C(O)c1ccc(C(=O)O)c(C(=O)Nc2ccc3c(c2)C(=O)c2ccccc2-3)c1,> 100 µM (inactive),> 100 µM (inactive),> 100 µM (inactive),> 100 µM (inactive),> 100 µM (inactive),> 100 µM (inactive),> 100 µM (inactive),55.6 µM (inactive),> 100 µM (inactive),> 100 µM (inactive),> 100 µM (inactive),> 100 µM (inactive),> 100 µM (inactive),> 100 µM (inactive),> 100 µM (inactive),> 100 µM (inactive),48 µM (inactive),> 100 µM (inactive),> 100 µM (inactive),> 100 µM (inactive)
COc1ccc(N/N=C2\C3=C(CCC(C)(C)O3)C(=O)c3ccccc32)cc1,13.4 µM (inactive),14.1 µM (inactive),14.2 µM (inactive),16.6 µM (inactive),52.6 µM (inactive),18.3 µM (inactive),21.9 µM (inactive),15.3 µM (inactive),18.1 µM (inactive),13.7 µM (inactive),20.9 µM (inactive),14.5 µM (inactive),15 µM (inactive),25.2 µM (inactive),16.2 µM (inactive),18.3 µM (inactive),16 µM (inactive),21.8 µM (inactive),13.6 µM (inactive),14.8 µM (inactive)
CC(C)[Si](OC1=C(C(=O)Nc2ccccc2Cl)CCCCC1)(C(C)C)C(C)C,> 100 µM (inactive),> 100 µM (inactive),> 100 µM (inactive),> 100 µM (inactive),> 100 µM (inactive),> 100 µM (inactive),> 100 µM (inactive),1.97 µM (inactive),> 100 µM (inactive),> 100 µM (inactive),> 100 µM (inactive),> 100 µM (inactive),> 100 µM (inactive),> 100 µM (inactive),> 100 µM (inactive),> 100 µM (inactive),0.462 µM (active),> 100 µM (inactive),> 100 µM (inactive),> 100 µM (inactive)
CCN(CC)CCC(=O)c1ccc(Sc2ccc(F)cc2)cc1,15.7 µM (inactive),18.2 µM (inactive),17.7 µM (inactive),> 100 µM (inactive),16 µM (inactive),20.1 µM (inactive),17.1 µM (inactive),20.1 µM (inactive),15.1 µM (inactive),18.3 µM (inactive),16 µM (inactive),16.2 µM (inactive),26.4 µM (inactive),18.9 µM (inactive),17.4 µM (inactive),10.8 µM (inactive),7.28 µM (inactive),21.1 µM (inactive),21.8 µM (inactive),19.3 µM (inactive)
NS(=O)(=O)c1ccc(NC(=O)N/N=C/c2ccccc2O)cc1,33.7 µM (inactive),48.2 µM (inactive),67.9 µM (inactive),> 100 µM (inactive),66.1 µM (inactive),> 100 µM (inactive),> 100 µM (inactive),27.2 µM (inactive),37.7 µM (inactive),> 100 µM (inactive),74.3 µM (inactive),60.4 µM (inactive),> 100 µM (inactive),> 100 µM (inactive),47.4 µM (inactive),73.8 µM (inactive),36.1 µM (inactive),42 µM (inactive),45.5 µM (inactive),67.8 µM (inactive)
c1cc2c(cc1[C@@H]1OC[C@@H]3[C@H]1CO[C@H]3c1ccc3c(c1)OCO3)OCO2,23.1 µM (inactive),26.9 µM (inactive),> 100 µM (inactive),62.2 µM (inactive),> 100 µM (inactive),> 100 µM (inactive),51.4 µM (inactive),44 µM (inactive),28.4 µM (inactive),> 100 µM (inactive),53.3 µM (inactive),> 100 µM (inactive),> 100 µM (inactive),> 100 µM (inactive),36.2 µM (inactive),> 100 µM (inactive),44.8 µM (inactive),> 100 µM (inactive),60.8 µM (inactive),> 100 µM (inactive)
CCO/C=N/C1=C(C#N)SC2=N/C(=C\c3ccccc3)C(=O)N21,> 100 µM (inactive),> 100 µM (inactive),> 100 µM (inactive),> 100 µM (inactive),97.3 µM (inactive),57.9 µM (inactive),> 100 µM (inactive),23.9 µM (inactive),31.7 µM (inactive),> 100 µM (inactive),> 100 µM (inactive),> 100 µM (inactive),> 85.1 µM (inactive),> 100 µM (inactive),> 100 µM (inactive),> 100 µM (inactive),60.5 µM (inactive),> 100 µM (inactive),> 100 µM (inactive),> 100 µM (inactive)
O=C1C(c2cnc3ccccc3n2)=C(O)c2ccccc21,7.08 µM (inactive),> 95.7 µM (inactive),6.9 µM (inactive),> 81.8 µM (inactive),> 100 µM (inactive),> 53.6 µM (inactive),> 46.6 µM (inactive),> 60.4 µM (inactive),> 70.5 µM (inactive),> 86.5 µM (inactive),> 100 µM (inactive),> 100 µM (inactive),> 100 µM (inactive),> 100 µM (inactive),47.3 µM (inactive),84.3 µM (inactive),> 100 µM (inactive),> 100 µM (inactive),> 74.1 µM (inactive),> 64 µM (inactive)
CC(C)[C@]12O[C@H]1[C@@H]1O[C@@]13[C@@]1(C)CCC4=C(COC4=O)[C@@H]1C[C@@H]1O[C@@]13C2=O [TRIPTONIDE],0.824 µM (active),< 0.01 µM (active),< 0.01 µM (active),0.0384 µM (active),< 0.0193 µM (active),< 0.01 µM (active),0.0227 µM (active),< 0.01 µM (active),< 0.01 µM (active),< 0.01 µM (active),0.0191 µM (active),0.0122 µM (active),0.0178 µM (active),0.0235 µM (active),< 0.01 µM (active),0.0248 µM (active),0.063 µM (active),0.0119 µM (active),< 0.01 µM (active),0.0771 µM (active)
COC1/C=C\C=C(/C)C(=O)NC2=CC(=O)C(O)=C(CC(C)CC(OC)C(O)C(C)/C=C(\C)C1OC(N)=O)C2=O (stereo not given),0.649 µM (active),0.267 µM (active),1.5 µM (inactive),4.79 µM (inactive),> 100 µM (inactive),10.3 µM (inactive),0.253 µM (active),0.169 µM (active),0.0959 µM (active),2.81 µM (inactive),0.0668 µM (active),0.382 µM (active),38.5 µM (inactive),0.115 µM (active),0.406 µM (active),10.1 µM (inactive),0.0282 µM (active),0.893 µM (active),0.0269 µM (active),4.99 µM (inactive)
